Paper PMC4008261, “Rewiring of regenerated axons by combining treadmill training with semaphorin3A inhibition” (Molecular Brain, 2014)

Assays:
[1] = tested on: Transcription response, NF-AT; test: Pharmacological profile: transcription response; assay type: cell-based
Source text: (§1) Table 1 Pharmacological profile of SM-345431 (part 1) | column: IC50 (μm)

[2] = tested on: Transcription response, NF-kB; test: Pharmacological profile: transcription response; assay type: cell-based
Source text: as §1

CDK5/p35 = CDK5/p35 (Homo sapiens, UniProt Q00535); test: Kinase inhibition test; assay type: biochemical
Source text: (§2) Table 2 Pharmacological profile of SM-345431 (part 2) | column: IC50 (μm)

CaMKII = test: Kinase inhibition test; assay type: biochemical
Source text: as §2

EGFR = EGFR (Homo sapiens, UniProt P00533); test: Kinase inhibition test; assay type: biochemical
Source text: as §2

EphA2 = EphA2 (Homo sapiens, UniProt P29317); test: Kinase inhibition test; assay type: biochemical
Source text: as §2

EphA4 = EphA4 (Homo sapiens, UniProt P54764); test: Kinase inhibition test; assay type: biochemical
Source text: as §2

EphB4 = EphB4 (Homo sapiens, UniProt P54760); test: Kinase inhibition test; assay type: biochemical
Source text: as §2

FGFR2 = FGFR2 (Homo sapiens, UniProt P21802); test: Kinase inhibition test; assay type: biochemical
Source text: as §2

FGFR3 = FGFR3 (Homo sapiens, UniProt P22607); test: Kinase inhibition test; assay type: biochemical
Source text: as §2

FGFR4 = FGFR4 (Homo sapiens, UniProt P22455); test: Kinase inhibition test; assay type: biochemical
Source text: as §2

Fes = Fes (Homo sapiens, UniProt P07332); test: Kinase inhibition test; assay type: biochemical
Source text: as §2

Flt3 = Flt3 (Homo sapiens, UniProt P36888); test: Kinase inhibition test; assay type: biochemical
Source text: as §2

Fyn = Fyn (Homo sapiens, UniProt P06241); test: Kinase inhibition test; assay type: biochemical
Source text: as §2

GSK3β = GSK3β (Homo sapiens, UniProt P49841); test: Kinase inhibition test; assay type: biochemical
Source text: as §2

IGF-1R = IGF-1R (Homo sapiens, UniProt P08069); test: Kinase inhibition test; assay type: biochemical
Source text: as §2

MAPK2 = MAPK2 (Homo sapiens, UniProt P28482); test: Kinase inhibition test; assay type: biochemical
Source text: as §2

MEK1 = MEK1 (Homo sapiens, UniProt Q02750); test: Kinase inhibition test; assay type: biochemical
Source text: as §2

MEK4 = MEK4 (Homo sapiens, UniProt P45985); test: Kinase inhibition test; assay type: biochemical
Source text: as §2

MKK6 = MKK6 (Homo sapiens, UniProt P52564); test: Kinase inhibition test; assay type: biochemical
Source text: as §2

PAK2 = PAK2 (Homo sapiens, UniProt Q13177); test: Kinase inhibition test; assay type: biochemical
Source text: as §2

PAK4 = PAK4 (Homo sapiens, UniProt O96013); test: Kinase inhibition test; assay type: biochemical
Source text: as §2

PI 3-Kγ = PI 3-Kγ (Homo sapiens, UniProt P48736); test: Kinase inhibition test; assay type: biochemical
Source text: as §2

PKBα = PKBα (Homo sapiens, UniProt P31749); test: Kinase inhibition test; assay type: biochemical
Source text: as §2

PKBβ = PKBβ (Homo sapiens, UniProt P31751); test: Kinase inhibition test; assay type: biochemical
Source text: as §2

PKCγ = PKCγ (Homo sapiens, UniProt P05129); test: Kinase inhibition test; assay type: biochemical
Source text: as §2

ROCK-I = ROCK-I (Homo sapiens, UniProt Q13464); test: Kinase inhibition test; assay type: biochemical
Source text: as §2

SAPK2a = SAPK2a (Homo sapiens, UniProt Q16539); test: Kinase inhibition test; assay type: biochemical
Source text: as §2

TrkA = TrkA (Homo sapiens, UniProt P04629); test: Kinase inhibition test; assay type: biochemical
Source text: as §2

TrkB = TrkB (Homo sapiens, UniProt Q16620); test: Kinase inhibition test; assay type: biochemical
Source text: as §2

cSRC = cSRC (Homo sapiens, UniProt P12931); test: Kinase inhibition test; assay type: biochemical
Source text: as §2

Measured: IC50

Sequence of GSK3β (P49841 whole entry, species assumed): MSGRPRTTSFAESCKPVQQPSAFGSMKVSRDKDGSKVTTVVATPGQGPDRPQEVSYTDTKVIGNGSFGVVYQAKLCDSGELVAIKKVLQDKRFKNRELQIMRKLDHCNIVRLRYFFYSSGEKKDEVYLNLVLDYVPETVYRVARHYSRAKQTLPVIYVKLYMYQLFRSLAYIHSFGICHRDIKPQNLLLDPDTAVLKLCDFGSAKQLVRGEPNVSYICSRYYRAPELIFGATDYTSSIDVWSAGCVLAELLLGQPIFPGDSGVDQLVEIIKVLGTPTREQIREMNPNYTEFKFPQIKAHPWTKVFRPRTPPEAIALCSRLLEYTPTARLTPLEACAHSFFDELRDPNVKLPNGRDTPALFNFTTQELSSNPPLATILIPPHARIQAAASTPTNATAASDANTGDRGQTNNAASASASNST
Sequence of CDK5/p35 (Q00535 whole entry, species assumed): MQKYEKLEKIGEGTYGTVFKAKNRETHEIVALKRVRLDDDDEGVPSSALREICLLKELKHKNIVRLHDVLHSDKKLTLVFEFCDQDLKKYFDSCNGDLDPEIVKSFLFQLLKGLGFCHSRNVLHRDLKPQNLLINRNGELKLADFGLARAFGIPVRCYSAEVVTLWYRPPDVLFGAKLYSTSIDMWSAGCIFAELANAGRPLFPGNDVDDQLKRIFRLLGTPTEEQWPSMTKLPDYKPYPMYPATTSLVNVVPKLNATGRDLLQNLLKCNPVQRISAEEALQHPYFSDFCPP
Sequence of CDK5/p35 (Q15078 whole entry partner, species assumed): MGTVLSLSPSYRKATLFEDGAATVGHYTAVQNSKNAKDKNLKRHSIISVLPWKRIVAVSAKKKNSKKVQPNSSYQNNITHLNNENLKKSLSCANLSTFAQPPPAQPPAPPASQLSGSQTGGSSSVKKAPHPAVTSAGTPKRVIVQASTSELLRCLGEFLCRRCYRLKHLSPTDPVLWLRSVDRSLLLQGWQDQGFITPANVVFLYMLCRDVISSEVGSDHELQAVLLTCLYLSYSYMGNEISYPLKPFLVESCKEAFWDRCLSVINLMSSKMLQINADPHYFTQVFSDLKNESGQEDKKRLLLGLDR
Sequence of FGFR2 (P21802 22-821, species assumed): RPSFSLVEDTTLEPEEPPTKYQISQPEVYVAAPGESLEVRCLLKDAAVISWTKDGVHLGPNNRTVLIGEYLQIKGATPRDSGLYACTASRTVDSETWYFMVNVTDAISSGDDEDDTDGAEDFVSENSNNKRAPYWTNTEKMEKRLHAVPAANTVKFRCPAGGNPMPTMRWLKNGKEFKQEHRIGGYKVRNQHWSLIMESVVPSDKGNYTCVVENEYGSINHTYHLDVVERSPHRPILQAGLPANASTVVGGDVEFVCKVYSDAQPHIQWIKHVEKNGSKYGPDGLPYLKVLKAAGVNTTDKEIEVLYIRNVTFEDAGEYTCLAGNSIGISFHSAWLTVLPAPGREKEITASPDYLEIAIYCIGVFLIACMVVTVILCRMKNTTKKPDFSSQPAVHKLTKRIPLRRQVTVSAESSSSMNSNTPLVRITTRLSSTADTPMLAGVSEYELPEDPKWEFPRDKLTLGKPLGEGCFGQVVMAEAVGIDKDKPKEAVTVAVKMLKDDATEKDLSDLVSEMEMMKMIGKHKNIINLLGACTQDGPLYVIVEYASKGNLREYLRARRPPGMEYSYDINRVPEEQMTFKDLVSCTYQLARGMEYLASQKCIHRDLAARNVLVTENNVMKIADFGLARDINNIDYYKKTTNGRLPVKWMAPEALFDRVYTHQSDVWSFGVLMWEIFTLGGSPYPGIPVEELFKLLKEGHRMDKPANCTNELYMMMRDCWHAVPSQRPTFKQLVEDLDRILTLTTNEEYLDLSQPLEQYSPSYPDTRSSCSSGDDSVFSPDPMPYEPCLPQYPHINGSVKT
Sequence of PKBα (P31749 whole entry, species assumed): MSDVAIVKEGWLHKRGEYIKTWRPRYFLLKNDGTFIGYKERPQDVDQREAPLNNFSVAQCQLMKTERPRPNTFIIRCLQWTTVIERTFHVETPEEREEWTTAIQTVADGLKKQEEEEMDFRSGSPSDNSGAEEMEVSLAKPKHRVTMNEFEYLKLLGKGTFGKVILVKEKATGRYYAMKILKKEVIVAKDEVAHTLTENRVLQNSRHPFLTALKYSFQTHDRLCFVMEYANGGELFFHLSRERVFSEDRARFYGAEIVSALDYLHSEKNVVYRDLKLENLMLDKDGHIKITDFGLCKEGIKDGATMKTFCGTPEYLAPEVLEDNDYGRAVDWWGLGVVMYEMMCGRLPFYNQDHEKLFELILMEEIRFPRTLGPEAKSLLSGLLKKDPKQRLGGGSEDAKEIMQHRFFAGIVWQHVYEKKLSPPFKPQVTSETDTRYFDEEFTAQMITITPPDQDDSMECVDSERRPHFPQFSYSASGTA
Sequence of MEK1 (Q02750 whole entry, species assumed): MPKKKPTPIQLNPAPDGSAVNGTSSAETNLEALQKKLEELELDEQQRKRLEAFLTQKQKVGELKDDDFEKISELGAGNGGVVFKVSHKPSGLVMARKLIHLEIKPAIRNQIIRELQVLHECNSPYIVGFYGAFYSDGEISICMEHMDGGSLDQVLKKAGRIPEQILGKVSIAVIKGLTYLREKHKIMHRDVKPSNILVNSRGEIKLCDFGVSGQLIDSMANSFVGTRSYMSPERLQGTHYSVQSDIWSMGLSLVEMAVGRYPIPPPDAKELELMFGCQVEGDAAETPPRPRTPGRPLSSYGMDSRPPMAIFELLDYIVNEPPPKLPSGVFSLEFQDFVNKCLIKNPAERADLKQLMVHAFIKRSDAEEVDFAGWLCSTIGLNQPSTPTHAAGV
Sequence of PKBβ (P31751 whole entry, species assumed): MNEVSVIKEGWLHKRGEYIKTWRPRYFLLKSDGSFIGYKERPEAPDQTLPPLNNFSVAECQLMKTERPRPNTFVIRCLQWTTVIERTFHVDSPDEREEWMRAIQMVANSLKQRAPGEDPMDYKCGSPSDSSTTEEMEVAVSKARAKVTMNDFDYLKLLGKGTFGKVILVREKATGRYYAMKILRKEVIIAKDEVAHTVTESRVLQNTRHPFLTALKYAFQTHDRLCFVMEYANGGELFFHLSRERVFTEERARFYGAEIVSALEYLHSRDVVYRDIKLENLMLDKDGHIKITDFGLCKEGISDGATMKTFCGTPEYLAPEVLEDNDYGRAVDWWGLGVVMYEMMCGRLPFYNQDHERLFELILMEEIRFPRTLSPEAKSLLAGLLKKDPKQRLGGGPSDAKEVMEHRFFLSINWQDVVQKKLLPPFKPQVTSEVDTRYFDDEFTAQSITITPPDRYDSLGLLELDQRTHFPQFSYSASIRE
Sequence of cSRC (P12931 whole entry, species assumed): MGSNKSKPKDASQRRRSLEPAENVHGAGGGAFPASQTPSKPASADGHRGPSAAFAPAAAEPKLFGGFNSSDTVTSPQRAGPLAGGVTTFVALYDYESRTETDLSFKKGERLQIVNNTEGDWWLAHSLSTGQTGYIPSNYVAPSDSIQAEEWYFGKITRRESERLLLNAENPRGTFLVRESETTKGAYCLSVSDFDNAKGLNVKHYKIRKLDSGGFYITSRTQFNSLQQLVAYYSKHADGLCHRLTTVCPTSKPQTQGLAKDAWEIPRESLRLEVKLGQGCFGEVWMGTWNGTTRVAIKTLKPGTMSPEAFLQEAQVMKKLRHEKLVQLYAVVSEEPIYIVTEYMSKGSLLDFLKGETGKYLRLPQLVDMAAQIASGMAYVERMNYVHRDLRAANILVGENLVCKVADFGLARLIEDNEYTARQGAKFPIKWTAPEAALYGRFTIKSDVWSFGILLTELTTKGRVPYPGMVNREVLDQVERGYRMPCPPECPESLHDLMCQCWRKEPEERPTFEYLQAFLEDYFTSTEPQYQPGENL
Sequence of EphB4 (P54760 16-987, species assumed): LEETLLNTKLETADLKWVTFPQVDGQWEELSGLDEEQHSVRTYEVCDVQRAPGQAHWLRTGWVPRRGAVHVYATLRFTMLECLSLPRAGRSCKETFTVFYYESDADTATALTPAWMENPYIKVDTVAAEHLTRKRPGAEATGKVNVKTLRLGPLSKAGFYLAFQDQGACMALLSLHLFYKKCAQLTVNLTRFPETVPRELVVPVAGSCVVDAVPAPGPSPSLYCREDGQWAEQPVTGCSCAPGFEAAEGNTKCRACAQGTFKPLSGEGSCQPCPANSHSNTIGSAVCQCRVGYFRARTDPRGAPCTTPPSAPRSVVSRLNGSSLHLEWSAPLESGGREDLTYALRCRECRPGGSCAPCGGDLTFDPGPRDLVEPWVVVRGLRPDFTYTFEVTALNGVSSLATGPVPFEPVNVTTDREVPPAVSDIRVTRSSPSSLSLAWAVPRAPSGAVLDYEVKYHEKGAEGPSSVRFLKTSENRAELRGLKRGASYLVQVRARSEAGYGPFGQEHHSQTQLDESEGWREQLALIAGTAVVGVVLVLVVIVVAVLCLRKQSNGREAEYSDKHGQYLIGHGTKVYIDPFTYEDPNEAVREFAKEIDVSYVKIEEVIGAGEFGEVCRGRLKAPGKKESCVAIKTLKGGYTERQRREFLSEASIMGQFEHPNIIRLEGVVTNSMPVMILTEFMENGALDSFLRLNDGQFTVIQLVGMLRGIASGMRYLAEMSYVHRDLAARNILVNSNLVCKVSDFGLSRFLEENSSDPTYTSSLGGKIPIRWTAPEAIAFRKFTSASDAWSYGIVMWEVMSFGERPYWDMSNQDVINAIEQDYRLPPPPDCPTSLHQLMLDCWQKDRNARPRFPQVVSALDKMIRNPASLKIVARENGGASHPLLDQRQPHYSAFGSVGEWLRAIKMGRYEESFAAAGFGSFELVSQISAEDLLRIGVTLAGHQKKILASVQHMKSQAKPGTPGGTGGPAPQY

CC(=O)c1cc2c(=O)c3c(C(=O)O)c(O)c(O)cc3oc2c(C(C)=O)c1-c1coc2cc(O)c(O)c(C(=O)O)c2c1=O [SM-345431, Vinaxanthone]
640 nM: FGFR4
800 nM: EphA4
770 nM: FGFR3
900 nM: EGFR
> 10 µM: all other assays above
